Measured values reported in ChEMBL document CHEMBL1139071, “Diastereoselective synthesis of glycosylated prolines as alpha-glucosidase inhibitors and organocatalyst in asymmetric aldol reaction” (Bioorg Med Chem Lett, 2007).

Tests used:
[1] = Inhibition of rat intestinal alpha-glucosidase
[2] = organism: Rattus norvegicus; assay: Inhibition of rat intestinal alpha-glucosidase at 100 uM

| SMILES | IC50 [1] | Ki [1] | inhibition [2] |
| --- | --- | --- | --- |
| CCOC(=O)[C@H]1[C@H]([C@@H]2O[C@@H]3OC(C)(C)O[C@@H]3[C@H]2OCc2ccccc2)[C@@H](C(=O)OCC)N[C@H]1c1cccc([N+](=O)[O-])c1 | 61 µM | 33 µM | 82.7% |
| C[C@H]1O[C@H](O[C@H]2[C@H](O)[C@@H](O)[C@@H](O[C@H]3[C@H](O)[C@@H](O)C(O)O[C@@H]3CO)O[C@@H]2CO)[C@H](O)[C@@H](O)[C@@H]1N[C@H]1C=C(CO)[C@@H](O)[C@H](O)[C@H]1O (stereo partly drawn) | – | – | 39% |
| CCOC(=O)[C@H]1[C@H](C2O[C@@H]3OC(C)(C)O[C@@H]3[C@H]2OCc2ccccc2)[C@@H](C(=O)OCC)N[C@H]1c1cccc(Cl)c1 (single isomer, unassigned) | 96 µM | 79 µM | 65.5% |
| CCOC(=O)[C@H]1[C@H](C2O[C@@H]3OC(C)(C)O[C@@H]3[C@H]2OCc2ccccc2)[C@@H](C(=O)OCC)N[C@H]1c1ccc(Br)cc1 (single isomer, unassigned) | 64 µM | 36 µM | 79.3% |
| CCOC(=O)[C@H]1[C@H](C2O[C@@H]3OC(C)(C)O[C@@H]3[C@H]2OCc2ccccc2)[C@@H](C(=O)OCC)N[C@H]1c1cc(Cl)ccc1Cl (single isomer, unassigned) | 99 µM | 65 µM | 67.2% |
| CCOC(=O)[C@H]1[C@H](C2O[C@@H]3OC(C)(C)O[C@@H]3[C@H]2OCc2ccccc2)[C@@H](C(=O)OCC)N[C@H]1c1ccc(F)cc1 (single isomer, unassigned) | 75 µM | 40 µM | 43.1% |
| CCOC(=O)[C@H]1[C@H](C2O[C@@H]3OC(C)(C)O[C@@H]3[C@H]2OC)[C@@H](C(=O)OCC)N[C@H]1c1ccc(Br)cc1 (single isomer, unassigned) | – | – | 26.8% |
| CCOC(=O)[C@H]1[C@H](C2O[C@@H]3OC(C)(C)O[C@@H]3[C@H]2OCc2ccccc2)[C@@H](C(=O)O)N[C@H]1c1cc(Cl)ccc1Cl (single isomer, unassigned) | – | – | 10.5% |
| CCOC(=O)[C@H]1[C@H](C2O[C@@H]3OC(C)(C)O[C@@H]3[C@H]2OCc2ccccc2)[C@@H](C(=O)O)N[C@H]1c1cccc([N+](=O)[O-])c1 (single isomer, unassigned) | – | – | 10.3% |

Other lines, results leading:

| IC50 [1] | Ki [1] | inhibition [2] | SMILES |
| --- | --- | --- | --- |
| – | – | 8.1% | CCOC(=O)[C@H]1[C@H](C2O[C@@H]3OC(C)(C)O[C@@H]3[C@H]2OCc2ccccc2)[C@@H](C(=O)O)N[C@H]1c1ccc(Br)cc1 (single isomer, unassigned) |
| – | – | 24.1% | CCOC(=O)[C@H]1[C@H](C2O[C@@H]3OC(C)(C)O[C@@H]3[C@H]2OCc2ccccc2)[C@@H](C(=O)O)N[C@H]1c1cccc(Cl)c1 (single isomer, unassigned) |
| – | – | 5.1% | CCOC(=O)[C@H]1[C@H](C2O[C@@H]3OC(C)(C)O[C@@H]3[C@H]2OCc2ccccc2)[C@@H](C(=O)O)N[C@H]1c1cccnc1 (single isomer, unassigned) |
| – | – | 29.3% | CCOC(=O)[C@H]1[C@H](C2O[C@@H]3OC(C)(C)O[C@@H]3[C@H]2OCc2ccccc2)[C@@H](C(=O)OCC)N[C@H]1c1cccnc1 (single isomer, unassigned) |
